These results are taken from paper PMC5037631, “Identification and characterization of putative xylose and cellobiose transporters in Aspergillus nidulans” (Biotechnology for Biofuels, 2016).

The target of the assay is T1, CltA (formerly XtrG; CltA::GFP) (Aspergillus nidulans, UniProt Q5ATN3).
T1 construct: gene ANIA_08347; full-length ORF from cDNA, GFP fusion, expressed in S. cerevisiae SC9721 with N. crassa beta-glucosidase gh1-1; plasma membrane
As to the kind of experiment: growth complementation of S. cerevisiae SC9721 gh1-1 on cellobiose. It is filed as cell-based. The conditions noted are these: 0.1-2 % cellobiose as sole carbon source, 30 °C; intracellular beta-glucosidase gh1-1 coexpressed.

T1 sequence (Q5ATN3 entry or part of it): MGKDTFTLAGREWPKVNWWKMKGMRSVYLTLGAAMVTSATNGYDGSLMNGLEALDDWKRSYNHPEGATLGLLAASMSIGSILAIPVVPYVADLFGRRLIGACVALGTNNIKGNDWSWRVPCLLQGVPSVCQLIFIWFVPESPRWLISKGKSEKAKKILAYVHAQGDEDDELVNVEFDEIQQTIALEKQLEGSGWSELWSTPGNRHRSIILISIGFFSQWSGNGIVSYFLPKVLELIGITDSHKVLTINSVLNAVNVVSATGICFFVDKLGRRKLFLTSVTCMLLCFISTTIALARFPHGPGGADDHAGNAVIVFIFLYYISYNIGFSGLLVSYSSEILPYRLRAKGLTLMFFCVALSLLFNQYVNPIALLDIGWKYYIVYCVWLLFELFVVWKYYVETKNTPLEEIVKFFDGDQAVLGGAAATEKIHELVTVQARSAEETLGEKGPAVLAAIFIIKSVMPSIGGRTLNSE

For `OC[C@H]1O[C@@H](O[C@H]2[C@H](O)[C@@H](O)C(O)O[C@@H]2CO)[C@H](O)[C@@H](O)[C@@H]1O` (stereo partly shown) [cellobiose], the “growth complementation of S. cerevisiae SC9721 gh1-1 on cellobiose” value was “CltA, and to a lesser extent CltB, is able to transport cellobiose”.
